Test results: ChEMBL document CHEMBL6182942, “Discovery of a Selective, Novel TGF-βR1 Inhibitor GFH018 for the Treatment of Solid Tumors” (J Med Chem, 2025)

Assays:
[1] = target: Mitogen-activated protein kinase 14 (Homo sapiens, UniProt Q16539); test: Inhibition of p38alpha (unknown origin) measured after 40 mins in presence of [gamma-33P]ATP by microbeta liquid scintillation counting analysis; type: toxicity
Homo sapiens = species on record: Homo sapiens; test: Selectivity ratio of IC50 for p38alpha (unknown origin) to IC50 for TGFbetaR1 (unknown origin)
TGF-beta receptor type-1 = target: T1, TGF-beta receptor type-1 (Homo sapiens, UniProt P36897); test: Inhibition of TGFbetaR1 (unknown origin) in presence of ATP
T1 sequence (P36897 whole entry): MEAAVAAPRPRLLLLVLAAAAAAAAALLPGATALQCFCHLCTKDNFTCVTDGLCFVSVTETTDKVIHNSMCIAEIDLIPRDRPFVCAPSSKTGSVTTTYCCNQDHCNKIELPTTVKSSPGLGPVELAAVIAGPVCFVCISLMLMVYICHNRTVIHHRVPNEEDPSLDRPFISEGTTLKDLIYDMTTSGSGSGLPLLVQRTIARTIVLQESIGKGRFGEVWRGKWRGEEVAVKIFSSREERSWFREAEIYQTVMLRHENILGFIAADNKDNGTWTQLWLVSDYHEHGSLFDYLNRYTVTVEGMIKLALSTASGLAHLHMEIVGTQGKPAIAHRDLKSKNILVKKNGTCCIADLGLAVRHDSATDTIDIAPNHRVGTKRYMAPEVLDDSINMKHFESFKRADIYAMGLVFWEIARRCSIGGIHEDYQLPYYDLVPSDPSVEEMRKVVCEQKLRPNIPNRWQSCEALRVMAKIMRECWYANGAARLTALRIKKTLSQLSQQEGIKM

[2] = Metabolic stability in mouse liver microsomes assessed as parent compound remaining at 1 uM preincubated for 5 mins followed by NADPH addition by LC-MS/MS analysis; type: ADME, Microsome; conditions: read-out: Stability
[3] = Apparent permeability across apical to basolateral side in dog MDCK-MDR1 cells at 2 uM measured over 150 mins by LC-MS/MS analysis; type: ADME, cell-based, Canis lupus familiaris
MDR1 = test: Efflux ratio of apparent permeability in dog MDCK-MDR1 cells at 2 uM measured over 150 mins by LC-MS/MS analysis; type: ADME, cell-based, Canis lupus familiaris
[4] = Metabolic stability in human liver microsomes assessed as parent compound remaining at 1 uM preincubated for 5 mins followed by NADPH addition by LC-MS/MS analysis; type: ADME, Microsome; conditions: read-out: Stability
NIH3T3 = test: Antiproliferative activity against mouse NIH/3T3 cells by celltitter-glo assay; type: functional, cell-based

Sequence of Mitogen-activated protein kinase 14 (Q16539 whole entry): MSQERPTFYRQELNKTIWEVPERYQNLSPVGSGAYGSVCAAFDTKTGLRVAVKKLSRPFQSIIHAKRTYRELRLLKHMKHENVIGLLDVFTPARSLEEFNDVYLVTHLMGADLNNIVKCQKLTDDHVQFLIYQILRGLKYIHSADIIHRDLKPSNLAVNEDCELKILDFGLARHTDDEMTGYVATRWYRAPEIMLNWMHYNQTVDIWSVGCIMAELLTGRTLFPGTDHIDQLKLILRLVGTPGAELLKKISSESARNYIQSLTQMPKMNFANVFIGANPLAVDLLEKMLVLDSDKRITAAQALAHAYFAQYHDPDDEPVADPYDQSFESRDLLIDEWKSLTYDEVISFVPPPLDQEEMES

In the case of Cc1cccc(-c2nn(C)c(C)c2-c2ccc3ncnn3c2/C=C/C(N)=O)n1, the IC50 [1] is reported as > 10000 nM, the Ratio IC50 (Homo sapiens) is reported as > 40 and the IC50 (TGF-beta receptor type-1) is reported as 253 nM.
Cc1cccc(-c2nn3c(c2-c2ccnc(Nc4ccc(S(N)(=O)=O)cc4)c2)CCC3)n1 gave an IC50 [1] of 15 nM, a Ratio IC50 (Homo sapiens) of 0.2 and an IC50 (TGF-beta receptor type-1) of 82.6 nM.
Cc1cccc(-c2nn3c(c2-c2ccc4nccn4c2/C=C/C(N)=O)CCC3)n1 showed an IC50 (TGF-beta receptor type-1) of 1020 nM.
Work on Cc1cccc(-c2nn3c(c2-c2ccc4ncnn4c2CCC(N)=O)CCC3)n1 yielded an IC50 (TGF-beta receptor type-1) of 928 nM.
In the case of Cc1cccc(-c2nn(C(C)C)cc2-c2ccc3ncnn3c2/C=C/C(N)=O)n1, the IC50 (TGF-beta receptor type-1) is reported as 423 nM.
For Cc1cc(C)nc(-c2nn3c(c2-c2ccc4ncnn4c2/C=C/C(N)=O)CCC3)c1, the IC50 (TGF-beta receptor type-1) was 3240 nM.
In the case of Cc1cccc(-c2nn3c(c2-c2ccnc4c2CN(C(N)=O)CC4)CCC3)n1, the IC50 (TGF-beta receptor type-1) is reported as > 5000 nM.
With Cc1cccc(-c2nn3c(c2-c2ccc4ncnn4c2/C=C/C(=O)NO)CCC3)n1 the remaining at 1 µM [2] was 41.6%, the IC50 [1] was > 3330 nM and the Ratio IC50 (Homo sapiens) was > 80. The Papp A→B at 2.5 h, 2 µM [3] was 0.15 ×10⁻⁶ cm/s, the IC50 (TGF-beta receptor type-1) was 41.2 nM and the efflux ratio at 2.5 h, 2 µM (MDR1) was 43.4. It also gave a remaining at 1 µM [4] of 42.5%.
For Cc1cccc(-c2nn(Cc3cccc(C(F)F)c3)cc2-c2ccc3ncnn3c2/C=C/C(N)=O)n1, the remaining at 1 µM [2] was 0%, the IC50 [1] was 2050 nM and the IC50 (NIH3T3) was 900 nM. It also gave an IC50 (TGF-beta receptor type-1) of 164 nM and a remaining at 1 µM [4] of 9.5%.
Cc1cccc(-c2nn3c(c2-c2ccc4ncnn4c2/C=C/C(N)=O)CCCC3)n1 gave an IC50 [1] of 1580 nM, a Ratio IC50 (Homo sapiens) of 11.6 and an IC50 (TGF-beta receptor type-1) of 136 nM.
For CCc1cccc(-c2nn3c(c2-c2ccc4ncnn4c2/C=C/C(N)=O)CCC3)n1, the IC50 [1] was 5380 nM, the Ratio IC50 (Homo sapiens) was 12.8 and the IC50 (TGF-beta receptor type-1) was 420 nM.
With Cc1cccc(-c2nn3c(c2-c2ccc4ncnn4c2CNc2cc[nH]n2)CCC3)n1 the IC50 [1] was > 10000 nM, the Ratio IC50 (Homo sapiens) was > 27.4 and the IC50 (TGF-beta receptor type-1) was 365 nM.
In the case of Cc1cccc(-c2nn3c(c2-c2ccc4ncnn4c2C(N)=O)CCC3)n1, the IC50 (TGF-beta receptor type-1) is reported as 4290 nM.
Cc1cccc(-c2nn3c(c2-c2ccc4ncnn4c2/C=C/C(=O)NCCO)CCC3)n1 gave an IC50 [1] of 6900 nM, a Ratio IC50 (Homo sapiens) of 24.6 and an IC50 (TGF-beta receptor type-1) of 281 nM.
Cc1cccc(-c2nn3c(c2-c2ccc4ncccc4c2/C=C/C(N)=O)CCC3)n1 gave an IC50 (TGF-beta receptor type-1) of 971 nM.
Cc1cccc(-c2nn3c(c2-c2ccc4ncnn4c2/C=C/C(=O)O)CCC3)n1 gave a Papp A→B at 2.5 h, 2 µM [3] of 0.43 ×10⁻⁶ cm/s, an IC50 (TGF-beta receptor type-1) of 76.8 nM and an efflux ratio at 2.5 h, 2 µM (MDR1) of 1.46.
